Test results: article PMC11402852, “Genotoxicity of selected cannabinoids in human lymphoblastoid TK6 cells” (Archives of Toxicology, 2024)
Read-outs that look alike come from different tables or passages of the source.

Key:
[1] = frequent Cannabis smokers, inhalation, ref Newmeyer et al. [2016], cited from earlier work; for Cmax: read-out: Mean maximum concentration (Cmax) in blood
TK6 cells [2] = experiment: Tubulin visualization; format: cell-based, human; conditions: 6 h; CBG 30 µM, CBD 15 µM, CBC 15 µM, CBN 15 µM; visually compared to control, not quantified
Method: For tubulin visualization, cells were treated with CBG 30 µM, CBD 15 µM, CBC 15 µM, CBDV 40 µM, and CBN 15 µM. The positive control was vincristine sulphate 0.0121 µM, and the solvent control was DMSO. Cells were treated for 6 h and then harvested. Slides were prepared with cytospin centrifugation. The cells were fixed in ice-cold methanol for 2 h. Following fixation, cells were permeabilized with 0.1% Tween20 in 1 × phosphate-buffered saline (PBS) for 5 min. Next, the anti-α-tubulin antibody was applied in 1:50 dilution. Antibody was diluted with 5% FCS in 1 × PBS. The antibody was incubated in a humid chamber at 4 °C for 24 h. Afterwards, the antibody was removed by washing slides twice with 0.5% Tween20 in 1 × PBS for 5 min. Nuclei were counterstained with Hoechst 33,258 (5 µg/mL, 3 min). The visualization was performed with a Keyence BZ-X800 microscope.

TK6 cells [3] = experiment: Mitotic disturbance assay; format: cell-based, human; conditions: 6 h, without S9; CBG 30 µM, CBD 15 µM, CBC 15 µM, CBDV 40 µM, CBN 15 µM; vs solvent control
Method: The cells were treated for 6 h with CBG 30 µM, CBD 15 µM, CBC 15 µM, CBDV 40 µM, and CBN 15 µM. The positive control was vincristine sulphate 0.0121 µM, and the solvent control was DMSO. For the experiments with or without the S9 mix (final concentration 0.25%), TK6 cells were treated with either CBDV 40 µM or vincristine sulphate 10 ng/mL for 6 h. DMSO with or without S9 mix was used as control. Further procedure was as described for micronucleus experiments, except with direct harvest after cannabinoid treatment without the incubation period with cytochalasin B. Two slides were evaluated with a Nikon Eclipse 55i fluorescent microscope for each experimental condition. The independent experiments were conducted three times.
The cells were counted in categories apoptosis, interphase, prophase, metaphase, anaphase-telophase, disturbed metaphase, and disturbed anaphase-telophase in 1000 cells. The mitotic index was calculated as a sum of the number of cells in prophase, metaphase, anaphase-telophase, disturbed metaphase, and disturbed anaphase-telophase in 1000 cells. Disturbed metaphase and disturbed anaphase-telophase were defined as deviating from the usual appearance of mitoses. Disturbed mitoses were assessed in 100 mitotic cells per slide.

[4] = test system: human lymphoblastoid TK6 cells; experiment: Kinetochore analysis of micronuclei; format: cell-based; conditions: 4 h; for Kinetochore (+) MNi, %: of 200 micronuclei, CBG 30 µM, CBD 15 µM, CBC 15 µM, CBDV 40 µM, CBN 15 µM, MMS 40 µM, vincristine 0.0121 µM, one experiment
Method: For kinetochore analysis, cells were treated for 4 h with CBG 30 µM, CBD 15 µM, CBC 15 µM, CBDV 40 µM, and CBN 15 µM. The positive controls were MMS 40 µM, and vincristine sulphate 0.0121 µM; the solvent control was DMSO. After 4 h of treatment, the culture medium was renewed, and cells were exposed for 24 h to the cytokinesis inhibitor cytochalasin B (3 μg/mL). Then, cells were harvested, and slides were prepared with cytospin centrifugation. The cells were fixed in ice-cold methanol for 2 h. Kinetochores were stained overnight with undiluted primary anti-centromere antibody at 37 °C followed by 1:20 diluted FITC-conjugated secondary antibody at 37 °C for 2 h. Nuclei were counterstained with Hoechst 33,258 (5 µg/mL, 3 min). The experiment was performed one time. Per compound, 200 micronuclei were evaluated for kinetochore signal presence (Fig. 3). The evaluation was performed with a Keyence BZ-X800 microscope. The slides used in kinetochore evaluation were also evaluated for the number of induced micronuclei as described in the above paragraph cytokinesis‑block micronucleus assay.

[5] = test system: human lymphoblastoid TK6 cells; experiment: Cytokinesis-block micronucleus (CBMN) assay; conditions: for BMDL (10th percentile): 10th percentile of BMD50 estimation; for BMDL (10th percentile) / BMDU (90th percentile) / Number of micronuclei with S9 mix vs without: 4 h; for BMDL (10th percentile) / BMDU (90th percentile): micronucleus data; for 4 h BMD50: 50% increased relative genotoxicity vs controls, from micronucleus data, without S9, Bayesian BMD analysis; for 4 h BMD50 / Micronucleus induction: 4 h treatment; for BMDU (90th percentile): 90th percentile of BMD50 estimation; for Number of micronuclei with S9 mix vs without: CBG 30 µM, CBD 15 µM, CBC 15 µM, CBDV 40 µM, CBN 15 µM, 0.25% S9 mix; for Micronucleus induction: without metabolic activation, at least one concentration, vs solvent control
TK6 cells [6] = experiment: Cell cycle analysis (flow cytometry, DAPI); format: cell-based, human
Method: The cells were treated with CBG 30 µM, CBD 15 µM, CBC 15 µM, CBDV 40 µM, and CBN 15 µM for 6 or 24 h. The positive control was vincristine sulphate in a concentration of 0.0121 µM for 6 h of exposure and 0.0061 µM for 24 h. The solvent control was DMSO. Furthermore, experiments with the addition of S9 mix were performed with CBDV. In these experiments, cells were treated with CBDV (40 µM) with or without 0.25% S9 mix for 6 h. DMSO with or without the S9 mix was used as control, and the positive control was the same as mentioned above. After the treatment, cells were collected, washed twice with phosphate buffered saline (PBS) and fixed with 70% ethanol for 30 min on ice. Following each described step above, cells were centrifuged at 1000 rpm, 5 min, and 4 °C. Lastly, cells were resuspended in 1% bovine serum albumin (BSA) in PBS solution and stained with DAPI in a final concentration of 1 µg/mL for 30 min on ice. The cell distribution in different cell cycle phases was analyzed with MACSQuant® Analyzer 16 Flow Cytometer using a 450/50 nm filter and MACSQuantify™ Software 2.13 (Miltenyi Biotec, Bergisch Gladbach, Germany). For each sample, 20 000 events were analyzed. Four independent experiments were performed for 6 h of treatment without metabolic activation. Three independent experiments were done for 24 h of treatment without metabolic activation and 6 h of treatment with metabolic activation.

[7] = parameters: method as in Zhong et al. [2023]; conditions: depending on the cell line; downregulating CDK1, CDK2 and cyclin E; ref Zhong et al. [2023]; cited from earlier work
[8] = parameters: method as in Peters et al. [2022]; conditions: after consuming medical cannabis oil, ref Peters et al. [2022], cited from earlier work
[9] = test system: human mesothelioma, cholangiocellular carcinoma and ovarian carcinoma cell lines; parameters: method as in earlier work; conditions: 24 h of treatment; correlates with decrease of cell percentage in S phase; ref Viereckl et al. [2022]; Colvin et al. [2022]; Sooda et al. [2023]; cited from earlier work
[10] = test system: human lymphoblastoid TK6 cells; conditions: for 4 h BMD50 / BMDL (10th percentile) / BMDU (90th percentile): human, 4 h
[11] = parameters: method as in Hurley et al. ([2022]); conditions: epilepsy treatment in children, ref Hurley et al. ([2022]), cited from earlier work
[12] = test system: adult neural stem/progenitor cells; parameters: method as in Lourenço et al. ([2023]); conditions: 7 days of exposure; phase not indicated; ref Lourenço et al. ([2023]); cited from earlier work
[13] = test system: human buccal cell line TR146; parameters: method as in Russo et al. ([2019]); conditions: TR146, after 3 and 24 h; ref Russo et al. ([2019]); cited from earlier work
[14] = treatment – control (basal level of micronuclei subtracted), same concentrations
[15] = 6 h, without S9, CBG 30 µM, CBD 15 µM, CBC 15 µM, CBDV 40 µM, CBN 15 µM

SMILES | Cmax [1] [nM] | Multipolar and monopolar tubulin aggregation (TK6 cells [2]) | Kinetochore (+) MNi, % [4] [%] | Kinetochore (+) induced MNi [4, 14] [%] | BMDL (10th percentile) [5] [µM] | 4 h BMD50 [5] [µM] | BMDU (90th percentile) [5] [µM] | Number of micronuclei with S9 mix vs without [5] | Micronucleus induction [5] | Cell cycle distribution, 6 h (TK6 cells [6]; [15]) | Kinetochore (+) induced MNi ([4]; human) [%] | Micronucleus induction [10] | Number of micronuclei with S9 mix vs without [10] | 4 h BMD50 [10] [µM] | BMDL (10th percentile) [10] [µM] | BMDU (90th percentile) [10] [µM] | further results
CCCCCc1cc(O)c2c(c1)OC(C)(C)c1ccc(C)cc1-2 [CBN, cannabinol] | 37.4 | observed more frequently | 46 | 63.3 | 2.7 | 8.4 | 16.9 | significant reduction in the number of micronuclei | significant induction of micronuclei | no significant changes in the normal cell cycle distribution | – | – | – | – | – | – | Mitotic index (TK6 cells [3]): significantly decreased the mitotic index; Cell cycle effect [7]: cell cycle arrest in either the G0/G1 phase or S phase
COS(C)(=O)=O [MMS, methyl methane sulfonate, reference compound] | – | – | 38 | 41.9 | – | – | – | – | – | – | – | – | – | – | – | – | –
CCCCCc1cc(O)c2c(c1)OC(C)(CCC=C(C)C)C=C2 (centres unmarked) [CBC, cannabichromene] | – | observed more frequently | 48.5 | 69.7 | 2.5 | 9.8 | 34.5 | reduced as well, but not significantly | significant induction of micronuclei | no significant changes in the normal cell cycle distribution | – | – | – | – | – | – | Mean Cmax concentration in plasma [8]: 6.6 ng/mL; Cmax ([8]; read-out: Mean Cmax concentration in plasma): 21 nM; Cell cycle distribution (time not given) (TK6 cells [6]; TK6, CBC 15 µM, CBN 15 µM, 6 or 24 h): did not observe a change in cell cycle distribution
CCCCCc1cc(O)c(C/C=C(\C)CCC=C(C)C)c(O)c1 [CBG, cannabigerol] | 21.8 | – | – | – | – | – | – | – | – | – | 61.5 | significant induction of micronuclei | significant reduction in the number of micronuclei | 20.5 | 3.9 | 64.1 | Mean maximum concentration (Cmax) in blood [1]: 6.9 ng/mL; Cell cycle effect [9]: arresting cells in the G0/G1 phase
C=C(C)[C@@H]1CCC(C)=C[C@H]1c1c(O)cc(CCC)cc1O [CBDV, cannabidivarin] | – | – | – | – | – | – | – | – | – | – | 69.8 | induced micronuclei only after metabolic activation | significant rise in micronuclei frequency | 15.3 | 1.4 | 102.9 | Mean plasma Cmax [11]: 7.4 ng/mL; Cmax ([11]; read-out: Mean plasma Cmax): 25.8 nM; Cell cycle distribution, 6 h (TK6 cells [6]; human, 6 h, 40 µM): slight non-significant rise in cell percentage in the G1 phase; Cell cycle distribution, absence or presence of metabolic enzymes (TK6 cells [6]; human, 6 h, 40 µM): cell accumulation in the G1 phase; Cell cycle effect [12]: induced cell cycle arrest; DNA damage (comet assay) [13]: had the same effect on the cells as CBD
